# Data published in ChEMBL document CHEMBL1201862, “PubChem BioAssay data set” (2004).
# Activity calls are given as the source filed them.
# Assays:
# [1] = microbe, parasite or virus in culture; assay type: functional; details: Mycobacterium tuberculosis
# Protein skinhead-1 = target: T1, Protein skinhead-1 (Caenorhabditis elegans, UniProt P34707); assay type: functional
# T1 sequence (P34707 whole entry): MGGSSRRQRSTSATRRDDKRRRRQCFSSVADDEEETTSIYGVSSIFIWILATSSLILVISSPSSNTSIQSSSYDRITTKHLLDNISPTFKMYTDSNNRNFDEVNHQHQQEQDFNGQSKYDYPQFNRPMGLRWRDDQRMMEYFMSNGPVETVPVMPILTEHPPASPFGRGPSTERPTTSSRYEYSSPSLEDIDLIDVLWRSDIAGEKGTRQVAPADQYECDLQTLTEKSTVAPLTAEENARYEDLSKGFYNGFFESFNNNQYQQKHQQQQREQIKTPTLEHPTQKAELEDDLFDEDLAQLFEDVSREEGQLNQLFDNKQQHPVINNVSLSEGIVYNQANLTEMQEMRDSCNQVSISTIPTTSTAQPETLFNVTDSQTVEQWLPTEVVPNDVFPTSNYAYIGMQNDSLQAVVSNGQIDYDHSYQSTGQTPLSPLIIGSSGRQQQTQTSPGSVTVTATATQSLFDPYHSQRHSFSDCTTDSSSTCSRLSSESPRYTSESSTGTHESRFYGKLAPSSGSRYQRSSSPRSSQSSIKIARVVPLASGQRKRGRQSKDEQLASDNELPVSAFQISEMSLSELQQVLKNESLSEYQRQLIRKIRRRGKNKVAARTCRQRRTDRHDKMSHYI
# [2] = target: FAD-linked sulfhydryl oxidase ALR (Homo sapiens, UniProt P55789); assay: inhibitors of human ALR sulfhydryl oxidase, dose response, biochemical, H2O2 detection, luminescence, cherry-pick (AID 493248)
# [3] = target: T2, Heat shock factor protein 1 (Mus musculus, UniProt P38532); assay: HSF1 potentiators in luciferase reporter cells, confirmation, cell-based, NIH3T3, luminescence, dose retest (AID 435004); assay type: functional;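 note: stress induced by proteasome inhibitor MG132 added 30 min after compound; luciferase reporter driven by HSF1 response element in NIH3T3 cells; actives raise luminescence as potentiators of the MG132 stress response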
# T2 sequence (P38532 whole entry): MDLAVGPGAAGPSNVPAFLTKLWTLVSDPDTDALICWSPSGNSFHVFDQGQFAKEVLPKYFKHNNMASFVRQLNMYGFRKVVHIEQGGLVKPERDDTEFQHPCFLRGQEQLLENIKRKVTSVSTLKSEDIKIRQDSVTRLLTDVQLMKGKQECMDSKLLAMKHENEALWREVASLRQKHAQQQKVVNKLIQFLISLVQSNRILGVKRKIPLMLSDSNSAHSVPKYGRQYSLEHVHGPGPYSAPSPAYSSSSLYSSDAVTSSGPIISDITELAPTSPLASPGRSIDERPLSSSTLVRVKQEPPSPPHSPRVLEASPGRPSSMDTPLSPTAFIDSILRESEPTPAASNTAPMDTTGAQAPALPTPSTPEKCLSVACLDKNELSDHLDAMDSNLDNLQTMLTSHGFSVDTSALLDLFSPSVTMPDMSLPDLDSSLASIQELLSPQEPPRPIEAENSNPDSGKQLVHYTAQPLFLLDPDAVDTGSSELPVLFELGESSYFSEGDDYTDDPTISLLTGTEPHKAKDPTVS
# [4] = cytotoxicity toward NIH3T3 fibroblasts, dose response, counter-screen, cell-based, ATP luminescence, mouse fibroblasts (AID 2010); assay type: functional;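 note: cells exposed to compound for about 90 hours before reading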
# [5] = inhibitors of intracellular T. cruzi replication, confirmation, NIH3T3 host cells, beta-gal luminescence (AID 2044); assay type: functional, cell-based;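 note: intracellular parasites grown in NIH/3T3 mouse fibroblasts as host cells; luminescent beta-galactosidase reporter signal from transgenic T. cruzi replicating inside host cells; inhibitors lower the luminescence signal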
# [6] = target: T3, Replicative DNA helicase DnaB (Mycobacterium tuberculosis, UniProt P9WMR3); assay: DnaB intein splicing inhibitors, dose response, biochemical, cell-free fluorescence (AID 449749); assay type: functional
# T3 sequence (P9WMR3 whole entry): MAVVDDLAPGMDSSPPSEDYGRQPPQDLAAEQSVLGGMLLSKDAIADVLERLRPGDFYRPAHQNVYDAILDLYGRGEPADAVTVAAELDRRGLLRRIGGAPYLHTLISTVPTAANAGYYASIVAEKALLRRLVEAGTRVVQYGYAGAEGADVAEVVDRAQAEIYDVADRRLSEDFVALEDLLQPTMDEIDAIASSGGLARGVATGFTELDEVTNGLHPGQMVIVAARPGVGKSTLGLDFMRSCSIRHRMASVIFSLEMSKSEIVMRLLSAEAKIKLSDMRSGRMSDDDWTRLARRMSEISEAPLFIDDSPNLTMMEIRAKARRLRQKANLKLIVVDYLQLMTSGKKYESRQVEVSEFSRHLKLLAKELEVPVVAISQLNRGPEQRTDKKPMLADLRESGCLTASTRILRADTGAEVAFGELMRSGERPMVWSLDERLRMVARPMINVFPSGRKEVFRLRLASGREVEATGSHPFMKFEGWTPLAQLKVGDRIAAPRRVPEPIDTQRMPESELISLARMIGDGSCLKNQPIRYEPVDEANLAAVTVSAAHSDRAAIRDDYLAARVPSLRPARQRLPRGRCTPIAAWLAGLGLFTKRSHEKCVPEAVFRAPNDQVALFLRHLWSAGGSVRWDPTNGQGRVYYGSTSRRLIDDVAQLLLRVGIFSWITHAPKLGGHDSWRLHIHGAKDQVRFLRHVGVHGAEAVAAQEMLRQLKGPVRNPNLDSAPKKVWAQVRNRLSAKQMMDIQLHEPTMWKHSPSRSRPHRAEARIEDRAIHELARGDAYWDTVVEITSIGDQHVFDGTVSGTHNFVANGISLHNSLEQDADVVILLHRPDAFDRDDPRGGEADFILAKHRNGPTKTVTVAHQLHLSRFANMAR
# Protein RecA = target: T4, Protein RecA (Mycobacterium tuberculosis, UniProt P9WHJ3); assay: Fluorescence Cell-Free Homogeneous Dose Retest to Identify Inhibitors of RecA-Intein Splicing Activity. [Related pubchem assays (depositor defined):AID2097, AID2223, AID489010, AID492950]; assay type: functional
# T4 sequence (P9WHJ3 whole entry): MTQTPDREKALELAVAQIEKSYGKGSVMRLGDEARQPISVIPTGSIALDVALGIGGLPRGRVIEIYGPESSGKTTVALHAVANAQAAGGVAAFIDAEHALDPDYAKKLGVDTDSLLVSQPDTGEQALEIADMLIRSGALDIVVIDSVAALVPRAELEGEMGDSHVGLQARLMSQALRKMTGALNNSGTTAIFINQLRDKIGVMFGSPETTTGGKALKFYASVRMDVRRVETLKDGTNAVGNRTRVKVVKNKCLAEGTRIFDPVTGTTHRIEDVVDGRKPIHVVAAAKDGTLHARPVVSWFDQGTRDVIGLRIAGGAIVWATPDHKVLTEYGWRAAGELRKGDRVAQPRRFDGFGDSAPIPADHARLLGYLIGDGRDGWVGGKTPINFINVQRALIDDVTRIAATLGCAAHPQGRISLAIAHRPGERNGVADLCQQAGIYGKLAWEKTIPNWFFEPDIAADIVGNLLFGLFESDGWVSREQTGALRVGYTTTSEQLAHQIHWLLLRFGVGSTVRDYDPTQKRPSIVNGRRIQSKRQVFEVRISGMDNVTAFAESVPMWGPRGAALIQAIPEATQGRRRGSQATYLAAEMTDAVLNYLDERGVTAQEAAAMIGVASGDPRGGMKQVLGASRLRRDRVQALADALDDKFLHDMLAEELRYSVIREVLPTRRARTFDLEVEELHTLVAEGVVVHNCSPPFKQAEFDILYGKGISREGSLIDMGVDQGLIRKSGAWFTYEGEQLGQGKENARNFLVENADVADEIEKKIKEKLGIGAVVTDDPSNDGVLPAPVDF
# [7] = target: T5, Rac GTPase-activating protein 1 (Homo sapiens, UniProt Q9H0H5); assay: MgcRacGAP GTPase-activating activity inhibitors, confirmation, biochemical, ADP Hunter fluorescence, primary and confirmatory (AID 624330); assay type: functional
# T5 sequence (Q9H0H5 whole entry): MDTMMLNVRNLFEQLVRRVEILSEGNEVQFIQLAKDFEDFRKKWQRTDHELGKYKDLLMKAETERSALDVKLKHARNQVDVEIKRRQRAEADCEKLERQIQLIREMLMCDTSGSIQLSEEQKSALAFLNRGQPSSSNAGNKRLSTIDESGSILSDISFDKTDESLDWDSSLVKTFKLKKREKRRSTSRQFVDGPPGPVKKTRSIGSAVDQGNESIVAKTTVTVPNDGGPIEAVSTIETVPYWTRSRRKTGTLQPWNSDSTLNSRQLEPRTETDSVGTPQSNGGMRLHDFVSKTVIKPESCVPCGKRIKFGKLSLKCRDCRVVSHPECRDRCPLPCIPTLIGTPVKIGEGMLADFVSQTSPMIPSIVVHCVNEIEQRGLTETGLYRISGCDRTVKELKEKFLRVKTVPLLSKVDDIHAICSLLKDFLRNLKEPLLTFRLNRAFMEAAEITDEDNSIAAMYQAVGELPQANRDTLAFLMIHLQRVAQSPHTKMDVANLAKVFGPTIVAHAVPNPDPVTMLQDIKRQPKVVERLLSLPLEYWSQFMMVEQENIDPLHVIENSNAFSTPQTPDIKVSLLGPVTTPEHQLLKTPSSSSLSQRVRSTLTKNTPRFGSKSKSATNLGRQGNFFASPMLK
# Sequence of FAD-linked sulfhydryl oxidase ALR (P55789 whole entry): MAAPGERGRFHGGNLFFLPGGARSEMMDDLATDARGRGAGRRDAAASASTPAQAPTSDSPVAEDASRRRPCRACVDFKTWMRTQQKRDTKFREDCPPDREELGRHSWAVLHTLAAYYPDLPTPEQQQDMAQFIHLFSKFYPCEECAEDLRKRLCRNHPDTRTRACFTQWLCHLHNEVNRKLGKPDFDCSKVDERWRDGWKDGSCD
Structure (SMILES),IC50 (Protein skinhead-1),AC50 [2],further results
CCOC(=O)CN=C(S)n1cnc(N)n1,,,CC50 [1]: > 40 µM (active)
CC(C(=O)NC(=O)NC1CCCCC1)N(C)CC(=O)Nc1ccc(F)c(F)c1F (stereo not given),,,CC50 [1]: 25.8 µM (active)
O=c1c2cc3c(cc2[nH]c(=S)n1Cc1ccco1)OCO3,> 100 µM (inactive),,
Cc1nc(NC(=O)C2CC3CCCC(C2)C3=O)sc1C (stereo not given),> 100 µM (inactive),,
CC(=O)N1CCN=C1SCc1c(F)cccc1Cl,,0.631 µM (active),
Cc1cc2ncn(C(=O)c3ccc(F)cc3)c2cc1C,,5.34 µM (active),
O=C1/C(=C\c2ccc(C(F)(F)F)cc2)CSc2sccc21,69.4 µM (inactive),,
O=C(/C=C/Nc1ccccc1)c1ccccc1,> 100 µM (inactive),,EC50 [3]: > 260 µM (inconclusive)
Cc1c(NC(=O)CSc2ccc3c(c2)OCCO3)c(=O)n(-c2ccccc2)n1C,> 100 µM (inactive),,
O=C(Nc1nc(-c2ccccc2)cs1)c1cccs1,59.9 µM (inactive),,
CN(NC1CC(=O)N(c2ccccc2)C1=O)c1ccccc1 (stereo not given),,6.83 µM (active),
Cc1ccc(S(=O)(=O)NN2C(=O)/C(=C/c3cccnc3)SC2=S)cc1,,4.96 µM (active),
COc1ccc(CNC(C)C(=O)Nc2ccc3ccccc3c2)cc1OC (stereo not given),> 100 µM (inactive),,
O=C(c1cccc(-c2ccco2)c1)N1CCCC(N2CCN(c3ccc(F)cc3)CC2)C1 (stereo not given),,,CC50 [1]: > 40 µM (active)
Fc1cccc(-c2csc(-c3ccno3)n2)c1,> 100 µM (inactive),,
COC(=O)c1ccccc1N=Nc1c(N)n[nH]c1N,,6.65 µM (active),
Clc1ccc(-c2cn3cccnc3n2)cc1Cl,> 100 µM (inactive),,
c1ccc(CN2CCC(=NNc3nc4ccccc4[nH]3)CC2)cc1,,2.31 µM (active),
Cc1cccc(-c2nc3c(c(SCC(=O)N4CCOCC4)n2)CCCC3)c1,> 100 µM (inactive),,

Structure (SMILES),IC50 (Protein skinhead-1),AC50 [2],further results
O=S(=O)(Nc1ccc(N2CCCCC2)cc1)c1ccccc1F,,2.08 µM (active),
COc1ccc(-c2cc(C(=O)Nc3c(C)n(C)n(-c4ccccc4)c3=O)c3ccccc3n2)c(OC)c1,> 100 µM (inactive),,
Cc1ccc(N(CCC#N)C(=O)CCl)cc1C,,,EC50 [4]: 4.81 µM (active); EC50 [5]: 3.59 µM (active); AC50 [6]: 167 µM (active); EC50 (Protein RecA): 5.7 µM (active); CC50 [1]: 1.84 µM (active)
CCCC(=O)N(CCN1CCOCC1)c1nc2c(OCC)cccc2s1,> 100 µM (inactive),,
CC(C)CN1C(=O)NC(NS(=O)(=O)c2ccc(N)cc2)(C(F)(F)F)C1=O (stereo not given),,0.73 µM (active),
N#CCC(=O)Nc1ccc(C(=O)Nc2cccnc2)cc1,,0.87 µM (active),
Cc1[nH]c(C)c(S(=O)(=O)NCc2ccc(N(C)C)cc2)c1C(=O)N1CCCC1,,16.1 µM (active),
O=C(NCc1ccncc1)c1ccc(-c2ccc(F)c(F)c2)c2ccoc12,20.2 µM (active),,
Cc1ccc(NC(=O)COC(=O)C2(C)CC2(Cl)Cl)cc1S(=O)(=O)N1CCOCC1 (stereo not given),> 100 µM (inactive),,
CC/C(=C\c1ccc(Cl)cc1)c1ccncc1,13.5 µM (active),,
c1ccc(-c2cnc(-c3ccccc3)nn2)cc1,78.4 µM (inactive),,
CC1(Cc2ccc(OC(F)(F)F)cc2)C(=O)Nc2ccc(OC(F)(F)F)cc21 (stereo not given),34.3 µM (active),,
C/C(CC(=O)Nc1ccc(Cl)cc1C(F)(F)F)=N\NC(N)=S,,,CC50 [1]: > 40 µM (active)
Cc1ccccc1-n1c(SCC(=O)N/N=C/c2c(C)nn(-c3ccccc3)c2C)nc2ccccc2c1=O,,,EC50 [4]: > 60 µM (not active); EC50 [5]: 1.6 µM (active); CC50 [1]: > 40 µM (active)
COc1ccc(C2C(C(=O)OC(C)C)=C(C)N=c3s/c(=C\c4cccs4)c(=O)n32)cc1 (stereo not given),> 100 µM (inactive),,
COc1cc(/C=N/N2C(C)CCCC2C)cc(Br)c1O (stereo not given),,0.495 µM (active),
Cc1nc(C)c(CC(=O)N/N=C/c2ccc(O)cc2)c(O)n1,,2.17 µM (active),IC50 [7]: 69.6 µM (active)
CCCCCCCCCCC[C@@H](C[C@@H]1OC(=O)[C@H]1CCCCCC)OC(=O)[C@H](CC(C)C)NC=O [ORLISTAT],,,CC50 [1]: 37.9 µM (active)
